According to patent US20230277630A1, “METHODS AND COMPOSITIONS FOR TREATING AMYOTROPHIC LATERAL SCLEROSIS” (Amylyx Pharmaceuticals, Inc., priority 2022, published 2023):
Several values for one entry are separate records, joined by “and”; a condition that tells them apart may be missing. Equal entries are not always repeated. Where two headings read alike, the source gives them in different places.

What was measured:
OAT1 = biological target: T1, OAT1 (Homo sapiens, UniProt Q4U2R8); experiment: OAT1 inhibitor (IC50) assessment, PAH uptake in transfected HEK cells; format: in vitro ADME
T1 construct: expressed in transfected cells; host or cells: HEK293
T1 sequence (Q4U2R8 1-563): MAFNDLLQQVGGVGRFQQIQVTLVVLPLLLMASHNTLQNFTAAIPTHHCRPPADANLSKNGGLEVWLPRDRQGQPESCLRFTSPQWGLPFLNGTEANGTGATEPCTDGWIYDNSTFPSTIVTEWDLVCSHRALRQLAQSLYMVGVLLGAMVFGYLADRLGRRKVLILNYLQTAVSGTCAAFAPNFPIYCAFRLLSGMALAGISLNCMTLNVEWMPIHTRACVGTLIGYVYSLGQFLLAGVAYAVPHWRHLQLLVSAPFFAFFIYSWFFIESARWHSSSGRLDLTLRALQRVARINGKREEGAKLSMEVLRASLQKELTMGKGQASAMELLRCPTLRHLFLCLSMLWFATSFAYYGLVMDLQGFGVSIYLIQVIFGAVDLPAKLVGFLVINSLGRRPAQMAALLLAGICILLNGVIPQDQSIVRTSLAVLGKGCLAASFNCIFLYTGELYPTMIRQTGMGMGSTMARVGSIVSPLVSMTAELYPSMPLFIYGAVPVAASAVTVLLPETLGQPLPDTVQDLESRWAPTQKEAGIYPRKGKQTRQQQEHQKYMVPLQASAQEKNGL

[1] = biological target: T2, human liver microsomes (HLM) (Homo sapiens, UniProt P10632); experiment: CYP reaction phenotyping using HLM and chemical inhibitors (% remaining); format: in vitro ADME; details: human, microsomes, 5 μM, pH 7.4
T2 construct: from tissue; host or cells: pooled human liver microsomes
T2 sequence (P10632 1-490): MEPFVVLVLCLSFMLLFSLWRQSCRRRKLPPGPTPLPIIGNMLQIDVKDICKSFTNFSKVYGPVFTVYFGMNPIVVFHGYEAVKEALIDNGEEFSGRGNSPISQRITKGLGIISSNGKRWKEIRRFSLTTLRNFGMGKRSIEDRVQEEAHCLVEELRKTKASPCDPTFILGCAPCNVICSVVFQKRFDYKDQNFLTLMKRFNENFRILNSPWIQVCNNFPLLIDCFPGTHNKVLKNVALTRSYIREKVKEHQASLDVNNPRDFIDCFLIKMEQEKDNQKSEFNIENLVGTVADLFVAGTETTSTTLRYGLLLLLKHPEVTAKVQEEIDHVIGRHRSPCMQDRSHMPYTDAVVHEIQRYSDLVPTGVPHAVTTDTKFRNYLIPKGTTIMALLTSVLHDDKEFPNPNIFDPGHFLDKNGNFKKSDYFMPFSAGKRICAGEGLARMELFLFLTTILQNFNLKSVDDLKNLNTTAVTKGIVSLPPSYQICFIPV
Excerpt: % Remaining of TA=100×At/A0
Where, At and A0 are the peak area ratio of TA to IS at time t and at time zero, respectively.

BCRP = biological target: T3, BCRP (Homo sapiens, UniProt Q9UNQ0); experiment: BCRP IC50 assessment, bidirectional cladribine transport in C2BBe1 cells
T3 sequence (Q9UNQ0 1-655): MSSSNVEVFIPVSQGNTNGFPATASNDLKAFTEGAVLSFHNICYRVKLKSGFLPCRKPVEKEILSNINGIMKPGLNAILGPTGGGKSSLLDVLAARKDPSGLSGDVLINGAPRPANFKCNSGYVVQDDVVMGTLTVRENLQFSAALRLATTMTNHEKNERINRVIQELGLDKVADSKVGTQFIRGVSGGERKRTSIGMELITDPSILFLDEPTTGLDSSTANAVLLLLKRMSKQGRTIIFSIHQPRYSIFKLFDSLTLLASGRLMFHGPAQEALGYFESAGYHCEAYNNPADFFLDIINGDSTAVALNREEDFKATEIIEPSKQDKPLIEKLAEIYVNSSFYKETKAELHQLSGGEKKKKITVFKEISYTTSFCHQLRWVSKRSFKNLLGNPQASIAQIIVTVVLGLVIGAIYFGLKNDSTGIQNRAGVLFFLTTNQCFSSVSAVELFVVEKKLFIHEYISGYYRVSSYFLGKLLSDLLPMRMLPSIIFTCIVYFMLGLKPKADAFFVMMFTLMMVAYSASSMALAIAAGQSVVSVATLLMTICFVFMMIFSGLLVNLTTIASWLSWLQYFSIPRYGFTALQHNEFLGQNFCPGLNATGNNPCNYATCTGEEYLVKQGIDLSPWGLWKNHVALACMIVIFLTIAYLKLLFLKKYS
Procedure: After 30 minutes, the pre-incubation solution was aspirated.

[2] = set-up: species or system male Sprague Dawley rats; details: rat, in vivo
Procedure: Total urine recovery data for Tenofovir, TDF, and PB was calculated for the 24 hour collection period on Days 1 and 5. […] The reported urine recovery data included amount recovered (ng) and percent recovered (%) for […]. Individual and mean Tenofovir, TDF, and PB urine recovery data were presented with SD, reported to three significant figures, and CV %, reported to one decimal place.

in vivo = details: male, CD (Sprague-Dawley) IGS, rat; for Cmax: po, 840 mg/kg, Cmax plasma level
OAT3 = biological target: T4, OAT3 (Homo sapiens, UniProt Q8TCC7)
T4 sequence (Q8TCC7 1-542): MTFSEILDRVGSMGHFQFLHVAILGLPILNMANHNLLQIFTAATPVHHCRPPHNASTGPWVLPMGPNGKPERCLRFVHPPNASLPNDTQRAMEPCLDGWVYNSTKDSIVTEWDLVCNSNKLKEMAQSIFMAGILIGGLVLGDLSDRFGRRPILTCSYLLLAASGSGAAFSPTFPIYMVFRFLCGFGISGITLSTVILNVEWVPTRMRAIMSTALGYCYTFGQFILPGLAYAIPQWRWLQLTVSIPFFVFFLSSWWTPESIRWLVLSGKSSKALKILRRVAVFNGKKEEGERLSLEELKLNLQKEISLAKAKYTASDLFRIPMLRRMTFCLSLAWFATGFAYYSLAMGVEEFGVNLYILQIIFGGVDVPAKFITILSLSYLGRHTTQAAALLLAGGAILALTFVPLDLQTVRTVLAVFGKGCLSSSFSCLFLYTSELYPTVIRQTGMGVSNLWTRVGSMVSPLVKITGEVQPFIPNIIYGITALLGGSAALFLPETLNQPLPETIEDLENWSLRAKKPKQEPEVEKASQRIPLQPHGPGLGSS

[3] = TUDCA and PB present simultaneously, PAH uptake, HEK cells, read-out: estimated IC50 toward OAT1
[4] = previous study (Example 6), converted, read-out: IC50 for in vitro inhibition of human OAT1

Structure (SMILES) | IC50 (OAT1; [3]) [µM] | IC50 (OAT1; [4]) [µM] | IC50 (OAT1; previous study (Example 6), read-out: IC50 for in vitro inhibition of human OAT1) [µM] | % Remaining of TA (n = 3) Average ([1]; 0 h) [%] | % Remaining of TA (n = 3) Average ([1]; 5 min) [%] | % Remaining of TA (n = 3) Average ([1]; 10 min) [%] | % Remaining of TA (n = 3) Average ([1]; 20 min) [%] | % Remaining of TA (n = 3) Average ([1]; 0.5 h) [%] | % Remaining of TA (n = 3) Average ([1]; 1 h) [%] | IC50 (BCRP) [µM] | detection in urine [2] | Tmax (in vivo; individual Tmax) [h] | Cmax (in vivo) [ng/mL] | IC50 (OAT3) | Urine concentrations ([2]; male, Sprague Dawley, po)
C[C@H](CCC(=O)NCCS(=O)(=O)O)[C@H]1CC[C@H]2[C@@H]3[C@@H](O)C[C@@H]4C[C@H](O)CC[C@]4(C)[C@H]3CC[C@]12C [TUDCA, tauroursodeoxycholic acid] | 0.0741 to 0.222 | 0.07 to 0.222 | 0.074 to 0.222 | 100 | 101 | 103 | 95.5 | 105 | 97.7 | 222 to 667 | not detected in any urine samples | 1 to 2 | 298 | 54 to 162 µM and 5.4 to 162 µM | –
O=C(O)CCCc1ccccc1 [PB, sodium phenylbutyrate] | 6.76 to 20.3 | 6.72 to 20.2 | – | – | – | – | – | – | – | 1790 to 5370 | – | – | 10200 | 4930 to 14800 µM | Urine concentrations for PB analysis in all animals on Day 1, for TUDCA analysis in all animals on Days 1 and 5, and for TDF analysis in two animals on Day 1 and one animal on Day 5 were BLQ (<20 ng/mL) so no recovery data was calculated.
